Data published in ChEMBL document CHEMBL5335819, “Discovery of an ellipticine derivative as TLR3 inhibitor against influenza A virus and SARS-CoV-2” (Bioorg Med Chem Lett, 2024).
The source made the active and inactive calls. The calls are words filed in the database; no cut-off is given here.

Tests used:
[1] = Cytotoxicity against human HEK293T cells assessed as reduction in cell viability incubated for 48 hrs by MTT assay; format: toxicity, cell-based, HEK-293T
[2] = test system: Influenza A virus; experiment: Antiviral activity against Influenza virus infected in human A549 cells assessed as reduction in virus induced IP-10 mRNA expression level by qRT-PCR analysis; format: functional, organism-based
[3] = test system: Influenza A virus; experiment: Antiviral activity against Influenza virus infected in human A549 cells assessed as reduction in virus induced IFN- beta mRNA expression level by qRT-PCR analysis; format: functional, organism-based
[4] = test system: Influenza A virus; experiment: Antiviral activity against Influenza virus infected in TLR3 knockdown human A549 cells assessed as reduction in NP protein level measured after 24 hrs by Western blot analysis; format: functional, organism-based
[5] = test system: SARS-CoV-2; experiment: Antiviral activity against SARS-CoV-2 infected in African green monkey Vero E6 cells assessed as inhibition of NP protein by indirect immunofluoresence assay; format: functional, organism-based; details: Severe acute respiratory syndrome coronavirus 2
[6] = test system: Influenza A virus; experiment: Antiviral activity against Influenza A virus A/Puerto Rico/8/34 (H1N1) infected in dog MDCK cells
[7] = test system: SARS-CoV-2; experiment: Antiviral activity against SARS-CoV-2 infected in African green monkey Vero E6 cells; format: functional, organism-based; details: Severe acute respiratory syndrome coronavirus 2, Vero C1008
[8] = Cytotoxicity against human BEAS-2B cells assessed as reduction in cell viability incubated for 48 hrs by MTT assay; format: toxicity, cell-based
[9] = biological target: Toll-like receptor 3 (Homo sapiens) (UniProt O15455); experiment: Inhibition of human TLR3 expressed in mouse RAW264.7 cells assessed as inhibition of NO production; format: cell-based
Toll-like receptor 3 (Homo sapiens), sequence (O15455 whole entry): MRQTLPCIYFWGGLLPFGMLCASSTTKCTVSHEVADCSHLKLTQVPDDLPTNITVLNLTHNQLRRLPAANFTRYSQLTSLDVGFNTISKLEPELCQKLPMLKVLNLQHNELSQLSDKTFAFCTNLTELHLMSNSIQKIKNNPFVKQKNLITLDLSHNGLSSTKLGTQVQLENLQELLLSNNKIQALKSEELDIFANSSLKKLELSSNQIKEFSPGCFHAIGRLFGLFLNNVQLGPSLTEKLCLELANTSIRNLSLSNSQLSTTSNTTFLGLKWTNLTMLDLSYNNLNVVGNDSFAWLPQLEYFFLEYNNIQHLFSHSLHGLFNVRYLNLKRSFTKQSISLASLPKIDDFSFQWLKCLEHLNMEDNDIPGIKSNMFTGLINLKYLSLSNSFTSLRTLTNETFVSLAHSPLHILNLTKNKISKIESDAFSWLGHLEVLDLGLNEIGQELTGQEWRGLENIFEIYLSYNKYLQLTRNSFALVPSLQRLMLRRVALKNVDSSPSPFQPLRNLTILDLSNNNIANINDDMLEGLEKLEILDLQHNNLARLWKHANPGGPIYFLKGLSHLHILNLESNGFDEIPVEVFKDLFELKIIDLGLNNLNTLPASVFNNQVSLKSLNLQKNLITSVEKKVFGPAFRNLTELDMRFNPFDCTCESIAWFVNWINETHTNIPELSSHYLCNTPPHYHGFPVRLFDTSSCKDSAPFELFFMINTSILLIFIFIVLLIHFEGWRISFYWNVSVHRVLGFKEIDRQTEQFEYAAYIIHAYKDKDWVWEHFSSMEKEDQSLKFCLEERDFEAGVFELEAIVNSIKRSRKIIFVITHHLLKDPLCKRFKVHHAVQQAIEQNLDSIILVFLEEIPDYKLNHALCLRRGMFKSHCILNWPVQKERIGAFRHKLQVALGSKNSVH

[10] = Cytotoxicity against African green monkey Vero E6 cells assessed as reduction in cell viability by CCK-8 assay; format: toxicity, cell-based, Vero C1008; details: chlorocebus sabaeus
[11] = test system: Influenza A virus; experiment: Antiviral activity against Influenza virus infected in TLR3 knockdown human A549 cells by plaque assay; format: functional, organism-based
[12] = test system: Influenza A virus; experiment: Antiviral activity against Influenza A virus A/WSN/33 (H1N1) infected in dog MDCK cells
[13] = test system: A549; experiment: Reduction in Poly(I:C) induced TLR3 mRNA expression in human A549 cells by qRT-PCR analysis; format: functional, cell-based
[14] = test system: MDCK; experiment: Cytotoxicity against MDCK cells assessed as reduction in cell viability incubated for 48 hrs by MTT assay; format: toxicity, cell-based, Canis lupus familiaris; details: dog
[15] = Cytotoxicity against human A549 cells assessed as reduction in cell viability incubated for 48 hrs by MTT assay; format: toxicity, cell-based
[16] = test system: Influenza A virus; experiment: Antiviral activity against Influenza virus infected in TLR3 human knockdown A549 cells assessed as reduction in PB2 protein level measured after 24 hrs by Western blot analysis; format: functional, organism-based
[17] = test system: Influenza A virus; experiment: Antiviral activity against Influenza virus infected in human A549 cells assessed as reduction in virus induced CCL-5 mRNA expression level by qRT-PCR analysis; format: functional, organism-based

COc1ccc2[nH]c3c(C)c4ccncc4c(C)c3c2c1
CC50 at 48 h [1]: 5.33 µM
Activity [2]: Active
Activity [3]: Active
Activity [4]: Active
Activity [5]: Dose-Dependent Effect
IC50 [6]: 0.14 µM
IC50 [7]: 0.43 µM
CC50 at 48 h [8]: 5.33 µM
inhibition [9]: Active
CC50 [10]: > 10 µM
Activity [11]: inactive
IC50 [12]: 0.33 µM
Activity [13]: Active
CC50 [14]: 5.33 µM
CC50 at 48 h [15]: 5.33 µM
Activity [16]: Active
Activity [17]: Active
